# Test results taken from PMC9619220 (Computational and Structural Biotechnology Journal, 2022).
# Assays:
# TgPDE1 [1] = molecular target: T1, TgPDE1 (Toxoplasma gondii, UniProt A0A7J6K721); assay: colorimetric PDE assay on immunoprecipitated enzyme, dose-response (cAMP hydrolysis; […] for cGMP); format: biochemical
# T1 construct: gene TGRH88_036470; native smHA-tagged TgPDE1 immunoprecipitated from tachyzoites
# TgPDE1 [2] = molecular target: T1, TgPDE1; assay: colorimetric PDE assay, single concentration ([…]), moderate effect; format: biochemical
# TgPDE2 = molecular target: T2, TgPDE2 (Toxoplasma gondii, UniProt A0A7J6KGW2); assay: colorimetric PDE assay, single concentration ([…]), partial inhibition of cAMP hydrolysis; format: biochemical
# T2 construct: gene TGRH88_018390; native smHA-tagged TgPDE2 immunoprecipitated from tachyzoites
# TgPDE1 [3] = molecular target: T1, TgPDE1; assay: colorimetric PDE assay on immunoprecipitated enzyme, dose-response (cAMP hydrolysis); format: biochemical
# [4] = substrate: [H][C@@]12COP(=O)(O)O[C@@]1([H])[C@@H](O)[C@H](n1cnc3c(=O)[nH]c(N)nc31)O2; assay: Michaelis-Menten kinetics, colorimetric PDE assay (Km); format: biochemical, Toxoplasma gondii
molecule,measurement,setting,value
"CC(C)c1n[nH]c2c(=O)[nH]c(Cc3ccccc3)nc12 [BIPPO, 5-benzyl-3-isopropyl-1H-pyrazolo (4,3-d) pyrimidin-7(6H)-one]",IC50,TgPDE1 [1],310 nM
"CC(C)Cn1c(=O)n(C)c(=O)c2[nH]cnc21 [IBMX, 3-isobutyl-1-methylxanthine]","colorimetric PDE assay, single concentration (100 μM), moderate effect",TgPDE1 [2],The effect of IBMX on TgPDE1 was moderate.
same,"colorimetric PDE assay, single concentration (100 μM), partial inhibition of cAM",TgPDE2,hydrolysis of cAMP by TgPDE2 was sensitive to partial inhibition by IBMX but to none of the other drugs
"CCCOc1ccccc1-c1nc2nn[nH]c2c(=O)[nH]1 [zaprinast, 1,4-Dihydro-5-(2-propoxyphenyl)-7H-1,2,3-triazolo (4,5-d) pyrimidin-7-one]",IC50,TgPDE1 [3],1490 nM
"TgPDE1 (Toxoplasma gondii) (protein, native smHA-tagged TgPDE1 immunoprecipitated from tachyzoites) MRLREHSLLLCVDAMSRDSPVASPAHSGVFGPSADAEVSEVFSLPSLSAVPGAASASSLSRENSLVSSRRASPSVSPPAGSPLWRLVRRCGQGEGERENVERCRLRERREECGAARRGPPASAATSDCSCPSAGDRRRVQSRRRRARTFQGRSFCGNHVSTEAEREGETEGEEETEGEEGREEYDSKRRGRLARRLGRRFVIAAAERGRKREGEETIVLRGNQGECWQEAQRTADSPDCSSSSVCCFGGSCSTASQCCACMRLASVSCPSPRSSFSTFHCSLPAVSSASAAFVCPRESPGSDSNSSPSCASSRGFSPSSPKATVSSSRPSSSSASPLRSSLSAPSGLFPVGSGCSSDVCVSVPLPAMFRGCRVHSSAPSSRTEQGTALLTGAPPSANELEAASAMANPTNSSRFSRVKTVSFATLSECGSSHISRRSDSASEPEAEREKPGLCSMRVARRESSPAARSPGRQSERRGTDSSCTSLPQRSDRAGRDRVGSRGSAEQRSSTSSRRVSDHSRAEAGLWSAGLGDSGASLEPDLESRSAFLRRCRARLAAARRKVCQAFQSLAEHDLVFRMKEDLAQMRHESSLRSVFADGCRERSGVEMSERTRLSVGGGTGRHLSVGTSTHKEGSTHKEGSEKERIRDGGSASPSTHLSRSGSGDVILRRFPLKFVDRGLEDLFADNINRWMATRLLMGVLSLVVTSVMWPLMAWSFNLLDAFNHSEPLGILFHINMAVTVFVAVLFIVTKRCRHLAEHAELIADGGTFLVVTIWGIWNTTASYILEHSYVQDVIGSAYPMHPADAPISLEKTSAWSTSLEASSAVAYLYGLLLIVQLDVVYPSRTRRTWQVHLMFFGFSTASIVIRGALNPDFVPVPFVVIRALTYLMLTVFLFIGRHATELQQRHTFYNWLTTRKRMDRLESDLKRQREKVKVSTAVEQLVHMVKHCMESCQTVESEVGSELHVSYRSLLIDCHQTLSRCLSILTHTSDLYTVQFGDLDSDAHRDIIQAFLNNHNSSPADWTRVTTAAYTRGVEDGCWSASDASSEAKSGDLGTPFAGSEALALVRRDSSHSWASSRGASAWPIQANWTGTLDGVHVHAFLHAVPEACGGAATPEHDGLRGEGLGDLGRASPRRQAGRQLTRLDEGRERDSEPEDLTDDGDSAEPPKNAASETEEKVSVPDNGRKTPTQALGEMKPGLTSKGLHDTLARVRASTHREVESRGRERRGDSAPCSSPSQRLTPQSLADFQARLRYEALIKLVHTSPRTPELSLGIPVSEEAARDWNFDCLRHAQLSPTPLVDVGYALLHRTSEDLRLPPDVVLRFLTAVEIQYNHVPYHNCIHGLMVAQKMVALTEVLELSQSIGSRDRALVVVAGLCHDIGHPGRNNALFINALDPVAVLYNDKSVLENYHSCLTFKTLELPDCDIFFSLRTKDYHMVRSLIIDLILATDMKNHFETVSRFRVRRNALDFDLSSEEDFWFAVKIIMKCADLSHCSVPWSQHFQWCQRLSVEFYDQGDEEVARHLPMSPLCDREKHSEVAKSQLGFMSFVAVPLFEELMAIDGTGNIEKYCISVMKTNASHWEALSSAAVPVPLLGEAPSPDVAPPLLHLIDGSGAAAVHPGSKAAEIANRYASSTVTTLDLTCLVYRTQLNRARRSSQQSGRRVSEGTSA",Km,[4],18 µM
